Results from US9458187B2, “Methods for treatment of inflammatory conditions using S-[4-(3-fleuro-3-methylbutyryloxy)but-2-ynyl]6α, 9α-difluoro-17α-(furan-2-yl) carbonyloxy-11β-hydroxy-16α-methyl-3-oxoandrosta-1,4-diene-17β-carbothioate” (Sun Pharma Advanced Research Company Limited, priority 2013, dated 2016).

What was measured:
[1] = system: Seasonal Allergic Rhinitis; assay: Efficacy and safety by intranasal administration, Seasonal Allergic Rhinitis Environmental Exposure Chamber study; type: in vivo, human; settings: patients, intranasal 100, 200 or 400 μg BID, 2 weeks, versus placebo
Description: The present study was conducted to determine the efficacy and safety of the compound of the present invention via intranasal route in Seasonal Allergic Rhinitis model. This was a single-centered, randomized, double-blind, placebo-controlled parallel group study.
OBJECTIVE: The objective of the study was to assess the efficacy and safety of the compound of the present invention via intranasal route compared to placebo in alleviating the signs and symptoms of Seasonal Allergic Rhinitis in Environmental Exposure Chamber Model (EEC) after 2 weeks of treatment.
METHODS: In this study, male and female patients aged 18-65 years with history of seasonal allergic rhinitis and positive skin prick test to Dactylis glomerate within 12 months prior to screening and with TNSS score of >6 at least once during the 2 hour-screening EEC were included. Total 159 patients were included in the study and total 154 patients were considered for efficacy analysis. […]
Primary efficacy endpoint was change in TNSS (Total Nasal Symptom Score) in a 4-hour environmental challenge with Dactylis glomerate pollen in an EEC from baseline to Day 15/16. The TNSS was calculated as summation of 4 point severity scale (0=None, 1=Mild, 2=Moderate and 3=Severe) for each symptom (Nasal congestion, Rhinorrhea, Nasal itching and Sneezing). […]

[2] = system: liver glycogen deposition; assay: Liver glycogen deposition; type: in vivo, Male Sprague Dawley rats; settings: 3 mg/kg intratracheal, 2 doses 24 hrs apart, adrenalectomized rats
[3] = biological target: T1, Human Glucocorticoid receptor (Homo sapiens, UniProt P04150); assay: Human glucocorticoid receptor binding (in vitro), [3H]dexamethasone radioligand
T1 construct: expressed in transfected cells; host or cells: human HeLa cells
T1 sequence (P04150 1-777): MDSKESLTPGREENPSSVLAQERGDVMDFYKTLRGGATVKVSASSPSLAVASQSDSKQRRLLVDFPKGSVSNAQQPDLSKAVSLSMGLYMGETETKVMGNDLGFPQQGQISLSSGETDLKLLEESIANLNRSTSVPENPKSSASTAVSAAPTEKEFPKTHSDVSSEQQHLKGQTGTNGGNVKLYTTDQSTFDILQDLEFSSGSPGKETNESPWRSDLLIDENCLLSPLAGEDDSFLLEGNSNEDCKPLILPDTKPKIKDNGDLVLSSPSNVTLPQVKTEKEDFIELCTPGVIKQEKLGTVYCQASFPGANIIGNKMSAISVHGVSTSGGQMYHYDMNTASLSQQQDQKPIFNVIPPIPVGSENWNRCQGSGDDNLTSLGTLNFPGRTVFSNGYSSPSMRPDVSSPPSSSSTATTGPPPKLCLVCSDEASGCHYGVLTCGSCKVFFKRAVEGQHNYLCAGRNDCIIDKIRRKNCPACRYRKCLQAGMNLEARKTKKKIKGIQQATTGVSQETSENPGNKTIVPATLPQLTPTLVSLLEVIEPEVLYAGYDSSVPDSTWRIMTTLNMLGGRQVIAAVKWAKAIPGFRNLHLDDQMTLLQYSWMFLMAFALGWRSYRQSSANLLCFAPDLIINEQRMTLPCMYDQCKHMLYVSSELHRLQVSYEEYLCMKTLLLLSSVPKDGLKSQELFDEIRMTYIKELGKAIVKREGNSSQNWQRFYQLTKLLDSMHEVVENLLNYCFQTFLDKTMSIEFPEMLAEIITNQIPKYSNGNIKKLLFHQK
Description: The activity of test compounds on glucocorticoid receptor was assessed using radioligand binding assays.
The % inhibition was evaluated using a single concentration of test compound and the corresponding radiolabeled ligand. Results are presented as the percent inhibition of specific binding. The values are average of duplicate determinations for each concentration.

[4] = biological target: T2, Progesterone receptor (Homo sapiens, UniProt P06401); assay: Steroidal receptor binding screen, progesterone (human)
T2 construct: host or cells: insect Sf9
T2 sequence (P06401 1-933): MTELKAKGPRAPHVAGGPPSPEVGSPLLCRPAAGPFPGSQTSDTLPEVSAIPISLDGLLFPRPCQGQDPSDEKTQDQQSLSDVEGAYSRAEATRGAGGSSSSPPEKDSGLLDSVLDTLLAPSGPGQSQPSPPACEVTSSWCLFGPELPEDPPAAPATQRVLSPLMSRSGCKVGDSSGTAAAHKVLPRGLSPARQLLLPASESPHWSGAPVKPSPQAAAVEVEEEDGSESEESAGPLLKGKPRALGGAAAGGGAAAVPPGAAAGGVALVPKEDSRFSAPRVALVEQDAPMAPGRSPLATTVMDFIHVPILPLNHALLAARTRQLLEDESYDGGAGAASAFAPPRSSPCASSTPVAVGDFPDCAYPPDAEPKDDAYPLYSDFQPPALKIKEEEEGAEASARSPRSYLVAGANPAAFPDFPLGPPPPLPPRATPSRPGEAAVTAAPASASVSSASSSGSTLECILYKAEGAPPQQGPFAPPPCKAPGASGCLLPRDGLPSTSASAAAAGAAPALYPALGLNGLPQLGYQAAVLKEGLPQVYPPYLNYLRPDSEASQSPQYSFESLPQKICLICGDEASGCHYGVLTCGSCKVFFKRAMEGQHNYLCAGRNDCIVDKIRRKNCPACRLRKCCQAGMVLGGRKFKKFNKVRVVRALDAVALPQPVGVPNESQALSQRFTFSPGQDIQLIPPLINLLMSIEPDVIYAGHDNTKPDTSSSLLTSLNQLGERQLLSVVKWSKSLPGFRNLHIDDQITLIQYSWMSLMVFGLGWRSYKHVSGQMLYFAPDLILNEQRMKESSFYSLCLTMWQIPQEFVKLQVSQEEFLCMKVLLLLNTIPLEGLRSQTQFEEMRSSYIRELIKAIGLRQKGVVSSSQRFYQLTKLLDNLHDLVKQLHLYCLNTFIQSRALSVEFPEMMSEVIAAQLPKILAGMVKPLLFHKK
Description: For determination of binding to other related steroidal receptors by compound of the present invention cloned receptors from cells indicated in the parentheses were used: estrogen Erα/Erβ and progesterone (human recombinant insect Sf9), testosterone (human LnCAP) and aldosterone (Wistar rat kidney).

## C[C@@H]1CC2C3C[C@H](F)C4=CC(=O)C=C[C@]4(C)[C@@]3(F)[C@@H](O)C[C@]2(C)[C@@]1(OC(=O)c1ccco1)C(=O)SCC#CCOC(=O)CC(C)(C)F (stereo partly drawn) [Formula I, S-[4-(3-Fluoro-3-methylbutyryloxy)but-2-ynyl]6α,9α-difluoro-17α-(furan-2-yl)carbonyloxy-11β-hydroxy-16α-methyl-3-oxoandrosta-1,4-diene-17β-carbothioate]
[1]
  primary and secondary efficacy endpoints (change in TNSS, TNSS subscales, nasal secretion): statistically superior to the placebo
  safety profile (treatment-emergent adverse events): no significant difference in the safety profile
[2]
  % Inhibition of thymus: 26.15%
[3]
  IC50: 2.3 nM
  Ki: 1.24 nM
[3]; compared with aldosterone, estrogen, progesterone and testosterone receptors
  potency and selectivity towards human glucocorticoid receptor: good potency and selectivity
[4]
  IC50: 8.52 nM
  Ki: 3.29 nM
